Values of other authors as cited in publication PMC4206604 (Journal of pharmaceutical sciences, 2014).

Molecular target: T1, NTCP (Homo sapiens, UniProt Q14973)
T1 sequence (Q14973 1-349): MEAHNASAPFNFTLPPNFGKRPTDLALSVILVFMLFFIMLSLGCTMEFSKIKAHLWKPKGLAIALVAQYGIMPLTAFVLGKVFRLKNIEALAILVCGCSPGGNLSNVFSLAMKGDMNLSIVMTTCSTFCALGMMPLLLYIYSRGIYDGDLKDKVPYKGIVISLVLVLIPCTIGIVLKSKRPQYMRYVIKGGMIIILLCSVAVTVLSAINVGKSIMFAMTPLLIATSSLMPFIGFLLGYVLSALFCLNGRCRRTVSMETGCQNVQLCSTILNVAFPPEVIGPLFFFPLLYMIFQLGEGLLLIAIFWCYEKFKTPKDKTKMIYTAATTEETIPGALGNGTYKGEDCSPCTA
Conditions: read-out: NTCP Km; same cell line

## C[C@H](CCC(=O)NCCS(=O)(=O)O)[C@H]1CC[C@H]2[C@@H]3[C@H](O)C[C@@H]4C[C@H](O)CC[C@]4(C)[C@H]3C[C@H](O)[C@]12C [taurocholate]
  Km: 5.31 µM
